In patent US20220195487A1, “Method for Measuring Inhibition of Bacteria by Antibacterial Drug, and Bacterial Counting Device and Method Thereof” (BEIJING XINJI JINNUO MEDICAL EQUIPMENT CO.,LTD., priority 2019, published 2022):
Values after ≈ are worked out from the molar mass of the structure shown.

Tests used:
Assay type in all cases: cell-based
[1] = test system: Escherichia coli ATCC 25922; assay: rapid susceptibility test by resistance counting method (Coulter principle)
Procedure: A method for measuring inhibition of Escherichia coli ATCC 25922 by ampicillin (by the resistance counting method).
The standard strain ATCC 25922 Escherichia coli was transferred for use later and incubated at 37° C. for 18 hours.
Ten of the drug susceptibility testing tubes (or cups) contained the required antibiotics of concentrations via doubling dilution (refer to American CLSI standards for concentrations for different drugs); the eleventh tube without antibiotics is used as a positive control (PC); the twelfth tube without bacterial suspension is used as a negative control (NC).
Prepare the bacterial strain and triturate on the wall of a vial with Mueller Hinton broth (MH for antibiotics susceptibility testing) to mix evenly, close the cap and measure the turbidity with a nephelometer (BD PhoenixSpec Nephelometer), the turbidity being 0.5 McFarland units, and set aside to be used later.
Inoculate the bacteria to be tested at an inoculum concentration specified in the CLSI (American Clinical and Laboratory Standards Institute) method for broth dilution drug susceptibility testing, and incubate in an incubator at 37° C.
Preparation of bacterial suspension: pick a spare colony to prepare bacterial suspension, the concentration of the bacterial suspension being 0.5 McFarland units. Add the colony suspension to (MH) broths containing different concentrations of various antibiotics and the content of bacteria in each tube after inoculation is 1×10∧4 cfu/mL to 5×10∧7 cfu/mL, optimally 5×10∧6 cfu/mL (colony forming units/mL), i.e. optimally 5×10∧6 colony forming units per mL.
Incubate in an incubator at 37° C., perform bacterial counting at 0 min, 10 min, 30 min, 60 min, 90 min and 120 min respectively by the resistance counting method (OMEC (Zhuhai) RC-3000 resistance (Coulter) particle counter). Measure twice, take the average value and record the data.
There were 12 tubes for testing, the eleventh tube being the positive control (PC), the twelfth tube being the negative control (NC) and the other 10 tubes being the test tubes. At each detection time point, measurements were carried out for all 12 tubes.

[2] = test system: Escherichia coli ATCC 25922; assay: VITEK microbial identification susceptibility system; conditions: ATCC25922, read-out: minimum inhibitory concentration
Procedure: (§1) In addition, the bacteria in this example were also subjected to three other methods of drug susceptibility testing, namely, measuring the inhibition of Escherichia coli ATCC 25922 in this example by ampicillin according to the operating manual of the VITEK microbial identification susceptibility system from Merieux, France, with a minimum inhibitory concentration of 4 μg/mL (micrograms per milliliter); measuring the inhibition of Escherichia coli ATCC 25922 in this example by ampicillin according to the Etest method, as detailed in the operating manual of the Etest kit from Thermo Fisher, USA, with a minimum inhibitory concentration of 2 μg/mL; and measuring the inhibition of Escherichia coli ATCC 25922 in this example by ampicillin according to broth dilution drug susceptibility testing method as specified in the broth dilution susceptibility standards by the American Clinical and Laboratory Standards Institute, with a minimum inhibitory concentration of 4 μg/mL. It can be seen that their results are all consistent and sensitive.

[3] = test system: Escherichia coli ATCC 25922; assay: Etest method; conditions: ATCC25922, read-out: minimum inhibitory concentration
Procedure: as §1

[4] = test system: Escherichia coli ATCC 25922; assay: broth dilution drug susceptibility testing method (CLSI); conditions: ATCC25922, read-out: minimum inhibitory concentration
Procedure: as §1

[5] = test system: Pseudomonas aeruginosa (ATCC27853); assay: 2 h susceptibility by resistance bacterial counter; conditions: Example 3, resistance counting, 2 h at 37° C., 60% of the positive count value as threshold
Procedure: (§2) 2.2.1 Preparation of bacterial strains: In accordance with the requirements of the CLSI standards, pick each fresh strains within 24 h with a turbidity of 0.5 McFarland units in the column of strain name in Table 5;
(§3) 2.2.2 Inoculation: Take 100 μL of each bacterial suspension with a turbidity of 0.5 McFarland units and dispense to a 48-well plate with pre-configured gradient antibiotics, 500 μL dispensed in each well;
(§4) 2.2.3 Incubation and detection: Incubate for 2 h at 37° C., and measure with a resistance bacterial counter. Adjust the instrument to its best sensitivity and then count bacteria. Record the 24 h routine susceptibility results for comparative analysis.

[6] = test system: Pseudomonas aeruginosa (ATCC27853); assay: 24 h routine (conventional) drug susceptibility testing by visual observation
[7] = test system: Pseudomonas aeruginosa (ATCC27853); assay: rapid drug susceptibility testing of living cells (live bacteria counting, 2 h); conditions: for Living cell counts: 2 h
Procedure: (§5) 1.2.1 Preparation of bacterial strains: in accordance with the requirements of the CLSI standards, pick each fresh strains within 24 h with a turbidity of 0.5 McFarland units in the column of strain name in Table 7.
(§6) 1.2.2 Inoculation: take 100 μL of each bacterial suspension with a turbidity of 0.5 McFarland units and dispense to a 48-well plate with pre-configured gradient antibiotics, 500 μL dispensed in each well.
(§7) 1.2.3 Incubation and detection: incubate for 2 h at 37° C., and perform live bacteria counting. Record the 24 h routine susceptibility results for comparative analysis.

[8] = test system: Enterococcus faecalis (ATCC29212); assay: 2 h susceptibility by resistance bacterial counter; conditions: Example 3, resistance counting, 2 h at 37° C., 60% of the positive count value as threshold
Procedure: as §2, §3, §4

[9] = test system: Enterococcus faecalis (ATCC29212); assay: 24 h routine (conventional) drug susceptibility testing by visual observation
[10] = test system: Enterococcus faecalis (ATCC29212); assay: rapid drug susceptibility testing of living cells (live bacteria counting, 2 h); conditions: for Living cell counts: 2 h
Procedure: as §5, §6, §7

Klebsiella pneumoniae [11] = assay: 2 h susceptibility by resistance bacterial counter; conditions: Example 3, resistance counting, 2 h at 37° C., 60% of the positive count value as threshold
Procedure: as §2, §3, §4

Klebsiella pneumoniae [12] = assay: 24 h routine (conventional) drug susceptibility testing by visual observation
Klebsiella pneumoniae [13] = assay: rapid drug susceptibility testing of living cells (live bacteria counting, 2 h); conditions: for Living cell counts: 2 h
Procedure: as §5, §6, §7

Acinetobacter baumannii [14] = assay: 2 h susceptibility by resistance bacterial counter; conditions: Example 3, resistance counting, 2 h at 37° C., 60% of the positive count value as threshold
Procedure: as §2, §3, §4

Acinetobacter baumannii [15] = assay: 24 h routine (conventional) drug susceptibility testing by visual observation
Acinetobacter baumannii [16] = assay: rapid drug susceptibility testing of living cells (live bacteria counting, 2 h); conditions: for Living cell counts: 2 h
Procedure: as §5, §6, §7

[17] = Example 3, 24 h routine susceptibility
[18] = Example 4, 24 h routine susceptibility
[19] = Example 4, live bacteria counting, 2 h at 37° C.

## CC1(C)S[C@@H]2[C@H](NC(=O)[C@H](N)c3ccccc3)C(=O)N2[C@H]1C(=O)O [ampicillin]
[1]; 0 min, 0.5 μg/mL
  bacterial counts: 210 cells/μL
[1]; 0 min, 1 μg/mL
  bacterial counts: 230 cells/μL
[1]; 0 min, 2 μg/mL
  bacterial counts: 208 cells/μL
[1]; 0 min, 4 μg/mL
  bacterial counts: 206 cells/μL
[1]; 0 min, 8 μg/mL
  bacterial counts: 204 cells/μL
[1]; 0 min, 16 μg/mL
  bacterial counts: 208 cells/μL
[1]; 0 min, 32 μg/mL
  bacterial counts: 210 cells/μL
[1]; 0 min, 64 μg/mL
  bacterial counts: 220 cells/μL
[1]; 0 min, 128 μg/mL
  bacterial counts: 212 cells/μL
[1]; 0 min, 256 μg/mL
  bacterial counts: 207 cells/μL
[1]; 60 min, 0.5 μg/mL
  bacterial counts: 807 cells/μL
[1]; 60 min, 1 μg/mL
  bacterial counts: 789 cells/μL
[1]; 60 min, 2 μg/mL
  bacterial counts: 811 cells/μL
[1]; 60 min, 4 μg/mL
  bacterial counts: 304 cells/μL
[1]; 60 min, 8 μg/mL
  bacterial counts: 250 cells/μL
[1]; 60 min, 16 μg/mL
  bacterial counts: 264 cells/μL
[1]; 60 min, 32 μg/mL
  bacterial counts: 290 cells/μL
[1]; 60 min, 64 μg/mL
  bacterial counts: 278 cells/μL
[1]; 60 min, 128 μg/mL
  bacterial counts: 214 cells/μL
[1]; 60 min, 256 μg/mL
  bacterial counts: 350 cells/μL
[1]; 90 min, 0.5 μg/mL
  bacterial counts: 1540 cells/μL
[1]; 90 min, 1 μg/mL
  bacterial counts: 1469 cells/μL
[1]; 90 min, 2 μg/mL
  bacterial counts: 1511 cells/μL
[1]; 90 min, 4 μg/mL
  bacterial counts: 432 cells/μL
[1]; 90 min, 8 μg/mL
  bacterial counts: 502 cells/μL
[1]; 90 min, 16 μg/mL
  bacterial counts: 500 cells/μL
[1]; 90 min, 32 μg/mL
  bacterial counts: 491 cells/μL
[1]; 90 min, 64 μg/mL
  bacterial counts: 489 cells/μL
[1]; 90 min, 128 μg/mL
  bacterial counts: 367 cells/μL
[1]; 90 min, 256 μg/mL
  bacterial counts: 460 cells/μL
[1]; 120 min, 0.5 μg/mL
  bacterial counts: 2534 cells/μL
[1]; 120 min, 1 μg/mL
  bacterial counts: 2456 cells/μL
[1]; 120 min, 2 μg/mL
  bacterial counts: 2463 cells/μL
[1]; 120 min, 4 μg/mL
  bacterial counts: 590 cells/μL
[1]; 120 min, 8 μg/mL
  bacterial counts: 524 cells/μL
[1]; 120 min, 16 μg/mL
  bacterial counts: 560 cells/μL
[1]; 120 min, 32 μg/mL
  bacterial counts: 578 cells/μL
[1]; 120 min, 64 μg/mL
  bacterial counts: 641 cells/μL
[1]; 120 min, 128 μg/mL
  bacterial counts: 498 cells/μL
[1]; 120 min, 256 μg/mL
  bacterial counts: 512 cells/μL
[1]; ATCC25922, resistance method, Escherichia coli ATCC 25922, read-out: minimum inhibitory concentration (MIC)
  MIC: 4 µg/mL (≈ 11.4 µM)
[2]
  MIC: 4 µg/mL (≈ 11.4 µM)
[3]
  MIC: 2 µg/mL (≈ 5.72 µM)
[4]
  MIC: 4 µg/mL (≈ 11.4 µM)

## CC(C)(O/N=C(\C(=O)N[C@@H]1C(=O)N2C(C(=O)[O-])=C(C[n+]3ccccc3)CS[C@H]12)c1csc(N)n1)C(=O)O [Ceftazidime]
[5]
  2 hMIC: 4
[6]; [17]
  24 hMIC: 2
[6]; [18]
  MIC, conventional drug susceptibility testing: 2 µg/mL (≈ 3.66 µM)
[7]; 0.03 μg/mL
  Living cell counts: 1509 cells/μL
[7]; 0.06 μg/mL
  Living cell counts: 1478 cells/μL
[7]; 0.12 μg/mL
  Living cell counts: 1513 cells/μL
[7]; 0.25 μg/mL
  Living cell counts: 1480 cells/μL
[7]; 0.5 μg/mL
  Living cell counts: 1235 cells/μL
[7]; 1 μg/mL
  Living cell counts: 1090 cells/μL
[7]; 2 μg/mL
  Living cell counts: 308 cells/μL
[7]; 4 μg/mL
  Living cell counts: 297 cells/μL
[7]; 8 μg/mL
  Living cell counts: 202 cells/μL
[7]; 16 μg/mL
  Living cell counts: 209 cells/μL
[7]; [19]
  MIC, rapid drug susceptibility testing of living cells: 2 µg/mL

## Penicillin
[8]
  2 hMIC: 1
[9]; [17]
  24 hMIC: 2
[9]; [18]
  MIC, conventional drug susceptibility testing: 2 µg/mL
[10]; 0.03 μg/mL
  Living cell counts: 13789 cells/μL
[10]; 0.06 μg/mL
  Living cell counts: 13679 cells/μL
[10]; 0.12 μg/mL
  Living cell counts: 12958 cells/μL
[10]; 0.25 μg/mL
  Living cell counts: 12088 cells/μL
[10]; 0.5 μg/mL
  Living cell counts: 11105 cells/μL
[10]; 1 μg/mL
  Living cell counts: 3085 cells/μL
[10]; 2 μg/mL
  Living cell counts: 1076 cells/μL
[10]; 4 μg/mL
  Living cell counts: 798 cells/μL
[10]; 8 μg/mL
  Living cell counts: 683 cells/μL
[10]; 16 μg/mL
  Living cell counts: 659 cells/μL
[10]; [19]
  MIC, rapid drug susceptibility testing of living cells: 1 µg/mL

## Gentamicin
Klebsiella pneumoniae [11]
  2 hMIC: 4
Klebsiella pneumoniae [12]; [17]
  24 hMIC: 8
Klebsiella pneumoniae [12]; [18]
  MIC, conventional drug susceptibility testing: 8 µg/mL
Klebsiella pneumoniae [13]; 0.03 μg/mL
  Living cell counts: 11879 cells/μL
Klebsiella pneumoniae [13]; 0.06 μg/mL
  Living cell counts: 11426 cells/μL
Klebsiella pneumoniae [13]; 0.12 μg/mL
  Living cell counts: 10167 cells/μL
Klebsiella pneumoniae [13]; 0.25 μg/mL
  Living cell counts: 10278 cells/μL
Klebsiella pneumoniae [13]; 0.5 μg/mL
  Living cell counts: 10971 cells/μL
Klebsiella pneumoniae [13]; 1 μg/mL
  Living cell counts: 10654 cells/μL
Klebsiella pneumoniae [13]; 2 μg/mL
  Living cell counts: 10549 cells/μL
Klebsiella pneumoniae [13]; 4 μg/mL
  Living cell counts: 10876 cells/μL
Klebsiella pneumoniae [13]; 8 μg/mL
  Living cell counts: 1876 cells/μL
Klebsiella pneumoniae [13]; 16 μg/mL
  Living cell counts: 880 cells/μL
Klebsiella pneumoniae [13]; [19]
  MIC, rapid drug susceptibility testing of living cells: 8 µg/mL

## C[C@@H](O)[C@H]1C(=O)N2C(C(=O)O)=C(S[C@@H]3CN[C@H](C(=O)N(C)C)C3)[C@H](C)[C@H]12 [Meropenem]
Acinetobacter baumannii [14]
  2 hMIC: 0.12
Acinetobacter baumannii [15]; [17]
  24 hMIC: 0.12
Acinetobacter baumannii [15]; [18]
  MIC, conventional drug susceptibility testing: 0.12 µg/mL (≈ 0.313 µM)
Acinetobacter baumannii [16]; 0.03 μg/mL
  Living cell counts: 7959 cells/μL
Acinetobacter baumannii [16]; 0.06 μg/mL
  Living cell counts: 6495 cells/μL
Acinetobacter baumannii [16]; 0.12 μg/mL
  Living cell counts: 1574 cells/μL
Acinetobacter baumannii [16]; 0.25 μg/mL
  Living cell counts: 1570 cells/μL
Acinetobacter baumannii [16]; 0.5 μg/mL
  Living cell counts: 1514 cells/μL
Acinetobacter baumannii [16]; 1 μg/mL
  Living cell counts: 1490 cells/μL
Acinetobacter baumannii [16]; 2 μg/mL
  Living cell counts: 1479 cells/μL
Acinetobacter baumannii [16]; 4 μg/mL
  Living cell counts: 1561 cells/μL
Acinetobacter baumannii [16]; 8 μg/mL
  Living cell counts: 1003 cells/μL
Acinetobacter baumannii [16]; 16 μg/mL
  Living cell counts: 979 cells/μL
Acinetobacter baumannii [16]; [19]
  MIC, rapid drug susceptibility testing of living cells: 0.12 µg/mL
